Experimental findings from patent publication US20230293490A1, “PROFILIN1:ACTIN INHIBITOR AS AN ANTI-ANGIOGENIC COMPOUND” (University of Pittsburgh- Of the Commonwealth System of …, priority 2020, published 2023) are described below.

One assay deals with human dermal VEC. Kind of assay: Matrigel cord assay (in vitro angiogenesis). Format: cell-based. The note with it: for concentration able to inhibit angiogenesis: matrigel cord assay, human dermal VEC. As to the method:
(§1) Note that contrasting its effect in cells, in biochemical assay Pfn1 inhibits actin polymerization by actin sequestering, and neither compound affects actin polymerization kinetics without the presence of Pfn1 (an important screening criterion).
(§2) Cell culture, transfection and viral transduction: Murine VHL-deleted variant of RENCA (referred to as RVN cells) cells were cultured in DMEM with 10% (v/v) FBS and 1% (v/v) antibiotics. Human VHL-negative 786-0 cells (source: ATCC) were cultured in RPMI-1640 media supplemented with 10% (v/v) FBS and antibiotics. HmVEC-1, a widely used immortalized human dermal microvascular EC line (ATCC; CRL-3243—referred to as VEC), were cultured in MCDB-131 (Life Technologies; Carlsbad, CA) growth medium supplemented with 10% (v/v) FBS, 1% (v/v) antibiotics, 10 ng/mL EGF, 1 μg/mL Hydrocortisone and 10 mM L-Glutamine. For adenovirus infection, cells were plated, allowed to attach and then infected with adenovirus encoding either GFP (Ad-GFP) or Pfn1 (Ad-Pfn1) at a MOI of 500 for 24 h, before further incubation for an additional 48h in fresh culture media prior to use. For knockdown studies, cells were transfected with 50 nM of either smart-pool control or Pfn1 siRNA for 72 h.

For assay [1], the system named is human renal cancer cell line. The experiment in a line: Human renal cancer cell line proliferation. Format: cell-based. Conditions: dose dependent.
The test system of the next assay is choroidal explant. Kind of assay: Choroidal explant angiogenesis culture (ex vivo).
The test system of a further assay is choroidal NV. Kind of assay: Laser-induced choroidal NV (CNV) model, IVT injection. It counts as in vivo, mice. The note with it: IVT C74 (50 μM). Here is the method: FIGS. 8A-8D. […] Laser-induced choroidal NV (CNV—an in vivo model that induces sub-retinal NV in response to laser injury in mice and is widely used to study NV aspects of wet AMD) in the settings of IVT injection of either DMSO (VEH) or C74 (50 μM) (panel C) and associated quantification (panel D).

For assay [2], the system named is human retinal endothelial cells. The experiment in a line: Angiogenic capability of human retinal endothelial cells in vitro. It counts as cell-based.
Assay [3] deals with human renal cancer cell line. Kind of assay: Human renal cancer cell line migration. It counts as cell-based. Conditions: dose dependent.
In another assay the test system is Pfn1-actin interaction. The experiment in a line: Pyrene-actin polymerization assay. It counts as biochemical.
Excerpt: as §1

Assay [4] has as its system RVN cells. The experiment in a line: Serum-induced chemotactic (transwell) migration of RVN cells. The note with it: dose-dependent. It counts as cell-based, murine. As to the method: as §2, with “For knockdown studies, cells were transfected with 50 nM of either smart-pool control or Pfn1 siRNA for 72 h.” left out
(§3) Cell migration and proliferation assays: For single-cell migration experiments, RVN, VEC and 786-0 cells were plated in 24-well plates coated with type I collagen (Millipore) overnight. […] For cell proliferation assay, one thousand RCC cells were plated per well in 96-well plates using quadruplicate determinations, with proliferation assessed by time-course analyses of DAPI-stained nuclei based on images acquired over 3 to 5 random fields per well.

Another assay deals with RENCA cells. The experiment in a line: Subcutaneous RENCA tumor model, daily intratumoral injection. It counts as in vivo, Balb/c mice. An excerpt: To determine whether C74 has any therapeutic benefit in vivo, we performed an exploratory study in which we established subcutaneous tumors by transplantation of RENCA cells in syngeneic Balb/c mice and injected either C74 or DMSO (vehicle) directly at the tumor cell inoculation site daily over a course of 19 days starting from day 1.
In vivo tumorigenesis: In 6 to 8 week old BALB/cJ mice, 1×10^6 RENCA cells were implanted subcutaneously in a 1:1 PBS:Matrigel (R&D Systems; Minneapolis, MN) mixture, supplemented with 81 μg C74 or DMSO control. Intratumoral injections were then given daily with either 320 μg C74 or control dissolved in saline, through day 19 post-implantation. On day 20, mice were sacrificed and harvested tumors were weighed. All animal experiments were performed according to the institutionally approved animal welfare guidelines.

For assay [5], the system named is RVN cells. Kind of assay: RVN cell proliferation assay. It counts as cell-based, murine. The note with it: dose-dependent. As to the method: as §2, with “For knockdown studies, cells were transfected with 50 nM of either smart-pool control or Pfn1 siRNA for 72 h.” left out
as §3

Regarding `Oc1cccc(C2c3c(-c4ccccc4)nnc(O)c3Nc3nnnn32)c1` (centres unmarked) [C2, 8-(3-hydroxyphenyl)-10-phenyl-2,4,5,6,7,11,12-heptaazatricyclo[7.4.0.0^3,^7]trideca-1(13),3,5,9,11-pentaen-13-ol, reference compound], the “concentration able to inhibit angiogenesis” value in the assay with human dermal VEC was determined as 50 µM.
As to `Cc1n[nH]c(O)c1C(c1ccc(Br)cc1)c1c(C)n[nH]c1O` [C74, 4-[(4-bromophenyl)(5-hydroxy-3-methyl-1H-pyrazol-4-yl)methyl]-3-methyl-1H-pyrazol-5-ol], in assay [1], the proliferation result is listed as “reduced”. Also, in the assay on choroidal explant, the “choroidal neovascularization ex vivo” value is “inhibited”. Moreover, in the assay on choroidal NV, the “choroidal neovascularization in vivo” value was “inhibited”. Also, the “fold lower concentration than C2 to inhibit angiogenesis” value in the assay on human dermal VEC (C74 vs C2) is listed as about 5 fold. In the assay on human dermal VEC, the “concentration able to inhibit angiogenesis” value was found to be 10 µM. In addition, the angiogenic capability result in [2] is “inhibited”. In [3], the migration entry is “reduced”. Further, the “reversal of Pfn1's inhibition of actin polymerization” value with Pfn1-actin interaction (actin plus Pfn1, fluorescence measures actin polymerization) was “can reverse Pfn1's inhibition of actin polymerization”. In the assay on Pfn1-actin interaction (compound alone, no Pfn1), the “effect on actin polymerization without Pfn1” value is “does not significantly alter actin polymerization on its own”. The “range of concentrations reducing migration” value with RVN cells [4] was 10 to 25 µM. Further, the “average end-point tumor burden (tumor weight)” value in the assay with RENCA cells (daily injection at tumor site over 19 days, tumors weighed day 20, n=10 animals) is 978.8 ± 366.0 mg. The “tumor angiogenesis (CD31-positive immune-reactive region of tumor histosections)” value in the assay with RENCA cells (daily intratumoral administration, relative to DMSO) is listed as “reduces tumor angiogenesis”. Moreover, the “range of concentrations reducing proliferation” value in the assay with RVN cells [5] was 10 to 25 µM.
